We go through 28 molecules from patent publication US11939314B2, “Quinolin-2-one derivatives” (MERCK PATENT GMBH, priority 2016, dated 2024).

The target in one experiment is T1, c-Kit(V654A) (Homo sapiens, UniProt P10721, V654A).
T1 construct: amino acids 544-end containing the V654A mutation; GST (N)
Description: c-Kit(V654A) assay. The experiment is classed as biochemical. The following applies: recombinant human c-Kit aa 544-end, 200 μM ATP, 1.4E-06 means 1.4×10^−6, read-out: Inhibition (IC50) of c-KIT (V654A). The gist of the method: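 Radiometric filter-binding read-out: substrate 33P incorporation counted by scintillation after P30 filtermat washes in 75 mM phosphoric acid and methanol. Enzyme: N-GST recombinant human c-Kit aa 544-end carrying V654A.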

A further experiment has as its target T2, PDGFRalpha(V561D) (Homo sapiens, UniProt P16234, V561D).
T2 construct: recombinant human PDGFRalpha, amino acids 550end containing the V561 D mutation; 6His (N)
Description: PDGFRalpha(V561D) assay. Type of experiment: biochemical. The following applies: recombinant human PDGFRalpha aa 550-end, 200 μM ATP, 1.4E-06 means 1.4×10^−6, read-out: Inhibition (IC50) of PDGFRα (V561D). The gist of the method: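 Radiometric filter-binding assay: substrate phosphorylation by recombinant N-His-tagged human PDGFRα 550-end V561D was quenched with 3% phosphoric acid after 40 min at room temperature, then counted.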

T2 sequence (P16234 550-1089 V561D): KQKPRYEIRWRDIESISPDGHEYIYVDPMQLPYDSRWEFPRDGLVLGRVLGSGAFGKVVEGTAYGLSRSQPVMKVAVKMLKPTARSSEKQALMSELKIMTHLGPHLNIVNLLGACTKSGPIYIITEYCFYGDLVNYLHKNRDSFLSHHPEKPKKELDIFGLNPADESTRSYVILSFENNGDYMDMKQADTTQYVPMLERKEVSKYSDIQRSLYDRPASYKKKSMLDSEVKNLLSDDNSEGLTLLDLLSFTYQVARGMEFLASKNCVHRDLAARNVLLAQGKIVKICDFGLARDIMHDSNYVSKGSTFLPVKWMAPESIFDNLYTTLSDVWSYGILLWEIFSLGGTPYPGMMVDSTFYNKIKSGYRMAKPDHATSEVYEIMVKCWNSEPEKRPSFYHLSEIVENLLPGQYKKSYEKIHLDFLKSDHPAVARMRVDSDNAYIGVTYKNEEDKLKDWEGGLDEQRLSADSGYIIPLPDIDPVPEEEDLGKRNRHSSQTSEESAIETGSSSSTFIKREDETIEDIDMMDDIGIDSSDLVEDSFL
T1 sequence (P10721 544-976 V654A): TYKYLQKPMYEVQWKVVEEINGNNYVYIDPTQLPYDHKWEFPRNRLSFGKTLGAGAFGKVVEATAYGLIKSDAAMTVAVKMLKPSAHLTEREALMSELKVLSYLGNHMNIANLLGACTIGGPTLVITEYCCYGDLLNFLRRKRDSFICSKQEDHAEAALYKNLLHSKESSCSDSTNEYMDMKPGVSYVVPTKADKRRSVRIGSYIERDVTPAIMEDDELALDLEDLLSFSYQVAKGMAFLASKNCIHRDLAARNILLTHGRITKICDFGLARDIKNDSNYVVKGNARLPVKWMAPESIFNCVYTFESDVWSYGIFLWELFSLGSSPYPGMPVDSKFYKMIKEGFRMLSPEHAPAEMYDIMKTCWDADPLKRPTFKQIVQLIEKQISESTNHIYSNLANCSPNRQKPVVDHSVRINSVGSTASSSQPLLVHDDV

In the case of `O=C(c1ccc(-n2cc(-c3cc4cc(Cl)ccc4[nH]c3=O)nn2)cc1)N1CC[C@H](F)C1` [A266, 6-chloro-3-{1-[4-((S)-3-fluoro-pyrrolidine-1-carbonyl)-phenyl]-1H-[1,2,3]triazol-4-yl}-1H-quinolin-2-one], the IC50 stood at 40 nM on c-Kit(V654A) and 1.1 nM on PDGFRalpha(V561D).
For `Cc1ccc2cc(-c3cn(-c4ccc(C(=O)N5CCOCC5)cc4)nn3)c(=O)[nH]c2c1` [A84, 7-methyl-3-{1-[4-(morpholine-4-carbonyl)-phenyl]-1H-[1,2,3]triazol-4-yl}-1H-quinolin-2-one], the 50% inhibitory concentration (IC50) on c-Kit(V654A) was found to be 48 nM; on PDGFRalpha(V561D), 5 nM.
Taken in the same sequence, the figures for `O=C(c1ccc(-n2cc(-c3cc4cc(F)ccc4[nH]c3=O)nn2)cc1)N1CC2(COC2)C1` [A235, 6-fluoro-3-{1-[4-(2-oxa-6-aza-spiro[3.3]heptane-6-carbonyl)-phenyl]-1H-[1,2,3]triazol-4-yl}-1H-quinolin-2-one] were 42 nM and 140 nM.
Taken in the same sequence, the figures for `C=C(C)c1ccc(-n2cc(-c3cc4ccccc4[nH]c3=O)nn2)cc1` [A80, 3-[1-(4-isopropenyl-phenyl)-1H-[1,2,3]triazol-4-yl]-1H-quinolin-2-one] were 120 nM and 44 nM.
Taken in the same sequence, the figures for `O=C(O)c1ccc(-n2cc(-c3cc4cccnc4[nH]c3=O)nn2)cc1` [A77, 4-[4-(2-Oxo-1,2-dihydro-[1,8]naphthyridin-3-yl)-[1,2,3]triazol-1-yl]-benzoic acid] were 470 nM and 110 nM.
For the molecule `NC(=O)[C@H]1CCCN1C(=O)c1ccc(-n2cc(-c3cc4cc(F)ccc4[nH]c3=O)nn2)cc1` [A262, (R)-1-{4-[4-(6-fluoro-2-oxo-1,2-dihydro-quinolin-3-yl)-[1,2,3]triazol-1-yl]-benzoyl}-pyrrolidine-2-carboxylic acid amide], the figures for the concentration for half-maximal inhibition (IC50) at c-Kit(V654A) and at PDGFRalpha(V561D) were 94 nM and 110 nM, respectively.
Taken in the same sequence, the figures for `O=C(c1ccc(-n2cc(-c3cc4cc(F)ccc4[nH]c3=O)nn2)cc1)N1CCC(OCCN2CCCC2)C1` (centres unmarked) [A224, 6-fluoro-3-(1-{4-[3-(2-pyrrolidin-1-yl-ethoxy)-pyrrolidine-1-carbonyl]-phenyl}-1H-[1,2,3]triazol-4-yl)-1H-quinolin-2-one] were 70 nM and 280 nM.
Taken in the same sequence, the figures for `CN1CCN(C(=O)c2ccc(-n3cc(-c4cc5ccc(Cl)cc5[nH]c4=O)nn3)cc2)CC1=O` [A97, 7-chloro-3-{1-[4-(4-methyl-3-oxo-piperazine-1-carbonyl)-phenyl]-1H-[1,2,3]triazol-4-yl}-1H-quinolin-2-one] were 17 nM and 10 nM.
Taken in the same sequence, the figures for `COC[C@@H]1CC[C@@H](COC)N1C(=O)c1ccc(-n2cc(-c3cc4cc(F)c(F)cc4[nH]c3=O)nn2)cc1` [A219, 3-{1-[4-((2S,5S)-2,5-bis-methoxymethyl-pyrrolidine-1-carbonyl)-phenyl]-1H-[1,2,3]triazol-4-yl}-6,7-difluoro-1H-quinolin-2-one] were 1600 nM and 320 nM.
In the case of `COCCN(CCOC)C(=O)c1ccc(-n2cc(-c3cc4cc(F)ccc4[nH]c3=O)nn2)cc1` [A238, 4-[4-(6-fluoro-2-oxo-1,2-dihydro-quinolin-3-yl)-[1,2,3]triazol-1-yl]-N,N-bis-(2-methoxy-ethyl)-benzamide], the 50% inhibitory concentration (IC50) on c-Kit(V654A) turned out to be 79 nM; on PDGFRalpha(V561D), 620 nM.
As to `CN(C)C(=O)c1ccc(-n2cc(-c3cc4cccnc4[nH]c3=O)nn2)cc1` [A3, N,N-dimethyl-4-[4-(2-oxo-1,2-dihydro-[1,8]naphthyridin-3-yl)-[1,2,3]triazol-1-yl]-benzamide], the values for the IC50 on c-Kit(V654A) and at PDGFRalpha(V561D) were 53 nM and 16 nM, respectively.
Taken in the same sequence, the figures for `Cc1ccc2[nH]c(=O)c(-c3cn(-c4ccc(C(=O)N5CCNCC5)cc4)nn3)cc2c1` [A137, 6-methyl-3-{1-[4-(piperazine-1-carbonyl)-phenyl]-1H-[1,2,3]triazol-4-yl}-1H-quinolin-2-one] were 40 nM and 42 nM.
Taken in the same sequence, the figures for `CO[C@@H]1CCN(C(=O)c2ccc(-n3cc(-c4cc5cc(F)c(F)cc5[nH]c4=O)nn3)cc2)C1` [A113, 6,7-difluoro-3-{1-[4-((R)-3-methoxy-pyrrolidine-1-carbonyl)-phenyl]-1H-[1,2,3]triazol-4-yl}-1H-quinolin-2-one] were 8.6 nM and 36 nM.
Take `CO[C@@H]1C[C@H](CO)N(C(=O)c2ccc(-n3cc(-c4cc5cc(F)ccc5[nH]c4=O)cn3)cc2)C1` [A302, 6-fluoro-3-{1-[4-((2R,4R)-2-hydroxymethyl-4-methoxy-pyrrolidine-1-carbonyl)-phenyl]-1H-pyrazol-4-yl}-1H-quinolin-2-one]: the IC50 on c-Kit(V654A) was determined as 31 nM; at PDGFRalpha(V561D) it was 1.2 nM.
Consider `CN1CCC(N(C)C(=O)c2ccc(-n3cc(-c4cc5ccccc5[nH]c4=O)nn3)cc2)CC1` [A59, N-methyl-N-(1-methyl-piperidin-4-yl)-4-[4-(2-oxo-1,2-dihydro-quinolin-3-yl)-[1,2,3]triazol-1-yl]-benzamide], for which the IC50 on c-Kit(V654A) turned out to be 76 nM; on PDGFRalpha(V561D) it was 46 nM.
On to `O=C(c1ccc(-n2cc(-c3cc4cc(F)ccc4[nH]c3=O)nn2)cc1)N1CC[C@H](F)C1` [A265, 6-fluoro-3-{1-[4-((S)-3-fluoro-pyrrolidine-1-carbonyl)-phenyl]-1H-[1,2,3]triazol-4-yl}-1H-quinolin-2-one], for which the values for the IC50 on c-Kit(V654A) and at PDGFRalpha(V561D) were 49 nM and 1.6 nM, respectively.
For the molecule `CN1CCN(C(=O)c2ccc(-n3cc(-c4cc5c(F)cc(F)cc5[nH]c4=O)nn3)cc2)CC1=O` [A95, 5,7-difluoro-3-{1-[4-(4-methyl-3-oxo-piperazine-1-carbonyl)-phenyl]-1H-[1,2,3]triazol-4-yl}-1H-quinolin-2-one], the concentration for half-maximal inhibition (IC50) on c-Kit(V654A) worked out at 9 nM; on PDGFRalpha(V561D), 370 nM.
Turning to `O=C(c1ccc(-n2cc(-c3cc4cc(F)c(F)cc4[nH]c3=O)nn2)cc1)N1CCNCC1` [A128, 6,7-difluoro-3-{1-[4-(piperazine-1-carbonyl)-phenyl]-1H-[1,2,3]triazol-4-yl}-1H-quinolin-2-one], the IC50 at c-Kit(V654A) was 41 nM; on PDGFRalpha(V561D), 9.7 nM.
`O=C(COc1ccc(-n2cc(-c3cc4cc(F)c(F)cc4[nH]c3=O)nn2)cc1)N1CCNCC1` [A140, 6,7-difluoro-3-{1-[4-(2-oxo-2-piperazin-1-yl-ethoxy)-phenyl]-1H-[1,2,3]triazol-4-yl}-1H-quinolin-2-one]: the IC50 on c-Kit(V654A) turned out to be 14 nM; on PDGFRalpha(V561D), 28 nM.
`COCCN(C)C(=O)c1ccc(-n2cc(-c3cc4cc(F)ccc4[nH]c3=O)nn2)cc1` [A211, 4-[4-(6-fluoro-2-oxo-1,2-dihydro-quinolin-3-yl)-[1,2,3]triazol-1-yl]-N-(2-methoxy-ethyl)-N-methyl-benzamide]: the IC50 on c-Kit(V654A) is 190 nM; on PDGFRalpha(V561D) it was 85 nM.
Taken in the same sequence, the figures for `CO[C@@H]1C[C@@H](CO)N(C(=O)c2ccc(-n3cc(-c4cc5cc(F)ccc5[nH]c4=O)nn3)cc2)C1` [A241, 6-fluoro-3-{1-[4-((2S,4R)-2-hydroxymethyl-4-methoxy-pyrrolidine-1-carbonyl)-phenyl]-1H-[1,2,3]triazol-4-yl}-1H-quinolin-2-one] were 100 nM and 290 nM.
Taken in the same sequence, the figures for `CN(C)C1CCN(C(=O)c2ccc(-n3cc(-c4cc5cc(Cl)ccc5[nH]c4=O)nn3)cc2)C1` (centres unmarked) [A254, 6-chloro-3-{1-[4-(3-dimethylamino-pyrrolidine-1-carbonyl)-phenyl]-1H-[1,2,3]triazol-4-yl}-1H-quinolin-2-one] were 57 nM and 24 nM.
`CN1CCC(CCOc2ccc(-n3cc(-c4cc5cc(F)c(F)cc5[nH]c4=O)nn3)cc2)CC1` [A166, 6,7-difluoro-3-(1-{4-[2-(1-methyl-piperidin-4-yl)-ethoxy]-phenyl}-1H-[1,2,3]triazol-4-yl)-1H-quinolin-2-one]: the IC50 at c-Kit(V654A) worked out at 8 nM; on PDGFRalpha(V561D) it was 43 nM.
Consider `CN1CCC(C(=O)c2ccc(-n3cc(-c4cc5cc(F)ccc5[nH]c4=O)nn3)cc2)CC1` [A161, 6-fluoro-3-{1-[4-(1-methyl-piperidine-4-carbonyl)-phenyl]-1H-[1,2,3]triazol-4-yl}-1H-quinolin-2-one], for which the half-inhibitory concentration (IC50) at c-Kit(V654A) was 35 nM; on PDGFRalpha(V561D), 15 nM.
Taken in the same sequence, the figures for `O=c1[nH]c2ccc(F)cc2cc1-c1cn(-c2cccc(OCCN3CCOCC3)c2)nn1` [A94a, 6-fluoro-3-{1-[3-(2-morpholin-4-yl-ethoxy)-phenyl]-1H-[1,2,3]triazol-4-yl}-1H-quinolin-2-one] were 60 nM and 54 nM.
Taken in the same sequence, the figures for `O=C(c1ccc(-n2cc(-c3cc4cc(F)ccc4[nH]c3=O)nn2)cc1)N1CCCC12COC2` [A234, 6-fluoro-3-{1-[4-(2-oxa-5-aza-spiro[3.4]octane-5-carbonyl)-phenyl]-1H-[1,2,3]triazol-4-yl}-1H-quinolin-2-one] were 50 nM and 740 nM.
Taken in the same sequence, the figures for `COCCOC[C@@H]1CCN(C(=O)c2ccc(-n3cc(-c4cc5cc(F)c(F)cc5[nH]c4=O)nn3)cc2)C1` [A223, 6,7-difluoro-3-(1-{4-[(R)-3-(2-methoxy-ethoxymethyl)-pyrrolidine-1-carbonyl]-phenyl}-1H-[1,2,3]triazol-4-yl)-1H-quinolin-2-one] were 350 nM and 410 nM.
As for `O=C(c1ccc(-n2cc(-c3cc4cc(Cl)ccc4[nH]c3=O)nn2)cc1)N1C[C@@H](O)CO1` [A275, 6-chloro-3-{1-[4-((R)-4-hydroxy-isoxazolidine-2-carbonyl)-phenyl]-1H-[1,2,3]triazol-4-yl}-1H-quinolin-2-one], the IC50 on c-Kit(V654A) is 45 nM; at PDGFRalpha(V561D), 0.21 nM.
